# Experimental data as given in ChEMBL document CHEMBL4393667, “Discovery of [1,2,4]Triazolo[4,3- a]pyridines as Potent Inhibitors Targeting the Programmed Cell Death-1/Programmed Cell Death-Ligand 1 Interaction” (J Med Chem, 2019).
# Biological target: T1, Programmed cell death protein 1/Programmed cell death 1 ligand 1 (Homo sapiens, UniProt Q15116+Q9NZQ7)
# Assay: Inhibition of human PD1/PDL1 protein-protein interaction after 15 mins by HTRF assay
# Format: protein-complex assay
# T1 sequence (Q15116 whole entry): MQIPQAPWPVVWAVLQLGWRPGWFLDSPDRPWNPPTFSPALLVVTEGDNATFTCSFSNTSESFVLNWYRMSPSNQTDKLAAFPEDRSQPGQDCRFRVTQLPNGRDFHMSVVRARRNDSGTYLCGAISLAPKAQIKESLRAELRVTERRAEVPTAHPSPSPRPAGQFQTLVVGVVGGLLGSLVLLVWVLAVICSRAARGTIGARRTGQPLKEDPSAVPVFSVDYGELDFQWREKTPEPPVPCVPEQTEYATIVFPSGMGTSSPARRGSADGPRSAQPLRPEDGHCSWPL
# T1 sequence (Q9NZQ7 whole entry): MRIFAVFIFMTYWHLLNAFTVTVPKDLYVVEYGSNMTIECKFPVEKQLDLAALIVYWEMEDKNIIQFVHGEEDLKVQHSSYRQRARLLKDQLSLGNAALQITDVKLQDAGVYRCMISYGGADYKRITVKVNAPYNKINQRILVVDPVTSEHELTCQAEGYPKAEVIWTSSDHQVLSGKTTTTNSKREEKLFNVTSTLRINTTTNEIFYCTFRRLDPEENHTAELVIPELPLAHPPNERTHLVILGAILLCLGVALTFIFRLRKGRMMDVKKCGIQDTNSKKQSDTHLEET
row,Structure (SMILES),IC50 [µM]
1,Cc1c(NC(=O)c2cc(CN(C)CCO)cn3cnnc23)cccc1-c1ccc2c(c1)OCCO2,0.238
2,Cc1c(NC(=O)c2cc(CN(C)CC(O)CO)cn3cnnc23)cccc1-c1ccc2c(c1)OCCO2 (stereo unspecified),0.474
3,Cc1c(NC(=O)c2cc(CN(C)CCO)cn3cnnc23)cccc1-c1ccccc1,0.755
4,N#Cc1c(NC(=O)c2cc(CNCCO)cn3cnnc23)cccc1-c1ccc2c(c1)OCCO2,0.275
5,Cc1c(NC(=O)c2cc(CNCCO)cn3c(C)nnc23)cccc1-c1ccccc1,> 10
6,COC(=O)[C@@H](CO)NCc1cc(C(=O)Nc2cccc(-c3ccccc3)c2C)c2nncn2c1,> 10
7,Cc1c(NC(=O)c2cc(CN[C@H]3CC[C@H](O)CC3)cn3cnnc23)cccc1-c1ccccc1,0.968
8,Cc1c(NC(=O)c2ccc(CN(C)CCO)n3cnnc23)cccc1-c1ccccc1,> 10
9,Cc1c(NC(=O)c2cc(CNCCS(N)(=O)=O)cn3cnnc23)cccc1-c1ccc2c(c1)OCCO2,3.69
10,Cc1c(NC(=O)c2cc(CNCC(N)=O)cn3cnnc23)cccc1-c1ccccc1,2.94
11,CC(=O)NCCNCc1cc(C(=O)Nc2cccc(-c3ccc4c(c3)OCCO4)c2C)c2nncn2c1,0.566
12,CN(Cc1cc(C(=O)Nc2cccc(-c3ccc4c(c3)OCCO4)c2C#N)c2nncn2c1)CC(O)CO (stereo unspecified),0.486
13,CC(=O)NCCNCc1ccc(C(=O)Nc2cccc(-c3ccccc3)c2C)c2nncn12,> 10
14,COC(=O)[C@@H]1CCCCN1Cc1cc(C(=O)Nc2cccc(-c3ccccc3)c2C)c2nncn2c1,> 10
15,Cc1c(NC(=O)c2cc(CN(C)CC(O)CO)cn3cnnc23)cccc1-c1ccccc1 (stereo unspecified),0.375
16,Cc1c(NC(=O)c2cc(CN3CCCC[C@H]3C(=O)O)cn3cnnc23)cccc1-c1ccccc1,5.13
17,CC(=O)NCCNCc1cc(C(=O)Nc2cccc(-c3ccc4c(c3)OCCO4)c2C#N)c2nncn2c1,0.367
18,CC(=O)NCCNCc1cc(C(=O)Nc2cccc(-c3ccccc3)c2C)c2nccn2c1,> 10
19,Cc1c(NC(=O)c2cc(CN3CCN(C)CC3)cn3cnnc23)cccc1-c1ccccc1,1.35
20,Cc1c(NC(=O)c2cc(CNCCNS(C)(=O)=O)cn3cnnc23)cccc1-c1ccc2c(c1)OCCO2,0.988
21,Cc1c(NC(=O)c2ccc(CNCCO)n3cnnc23)cccc1-c1ccccc1,> 10
22,Cc1c(NC(=O)c2cc(CNCCO)cn3ccnc23)cccc1-c1ccccc1,> 10
23,Cc1c(NC(=O)c2cc(CN[C@H](CO)C(=O)O)cn3cnnc23)cccc1-c1ccccc1,5.57
24,Cc1c(NC(=O)c2cc(CNCCS(N)(=O)=O)cn3cnnc23)cccc1-c1ccccc1,0.834
25,CS(=O)(=O)NCCNCc1cc(C(=O)Nc2cccc(-c3ccc4c(c3)OCCO4)c2C#N)c2nncn2c1,0.983
26,Cc1c(NC(=O)c2cc(CN(C)CCO)cn3ccnc23)cccc1-c1ccccc1,> 10
27,COC(=O)CNCc1cc(C(=O)Nc2cccc(-c3ccccc3)c2C)c2nncn2c1,> 10
28,CC(=O)NCCNCc1cc(C(=O)Nc2cccc(-c3ccccc3)c2C)c2nncn2c1,1.49
29,Cc1c(NC(=O)c2cc(CNCCO)cn3cnnc23)cccc1-c1ccccc1,0.733
30,Cc1c(NC(=O)c2cc(CN3CCN(C)CC3)cn3c(C)nnc23)cccc1-c1ccccc1,> 10

# Biological target: T1, Programmed cell death protein 1/Programmed cell death 1 ligand 1
# Assay: Inhibition of human PD1/PDL1 protein-protein interaction in human PBMC-derived CD3-positive T cells co-cultured with human Hep3B cells expressing PDL1/OS-8 assessed as increase in IFNgamma secretion measured after 3 days
row,Structure (SMILES),inhibition
1,Cc1c(NC(=O)c2cc(CNCCO)cn3cnnc23)cccc1-c1ccc2c(c1)OCCO2,Dose-dependent effect
